Several values for one entry are separate records, joined by “and”; a condition that tells them apart may be missing. Identical values can stand only once.
Columns and labels:
Test in all cases: radiometric filter-binding kinase assay, Kinase HotSpot
Details in all cases: compound 0.5 µM; ATP 10 µM
[1] = target: JAK1 JH1 catalytic (human) (UniProt P23458)
[2] = target: MATK (human) (UniProt P42679)
[3] = target: FGFR2 (human) (UniProt P21802)
[4] = target: MAPK12 (human) (UniProt P53778)
[5] = target: STK3 (human) (UniProt Q13188)
[6] = target: SGK3 (human) (UniProt Q96BR1)
[7] = target: SRMS (human) (UniProt Q9H3Y6)
[8] = target: PLK3 (human) (UniProt Q9H4B4)
[9] = target: AKT3 (human) (UniProt Q9Y243)
[10] = target: LIMK1 (human) (UniProt P53667)
[11] = target: BMX (human) (UniProt P51813)
[12] = target: TGFBR1 (human) (UniProt P36897)
[13] = target: MAPK11 (human) (UniProt Q15759)
[14] = target: SRPK1 (human) (UniProt Q96SB4)
[15] = target: ERBB2 (human) (UniProt P04626)
[16] = target: FGFR4 (human) (UniProt P22455)
[17] = target: CAMKK2 (human) (UniProt Q96RR4)
[18] = target: PRKG2 (human) (UniProt Q13237)
[19] = target: CSK (human) (UniProt P41240)
[20] = target: PTK2B (human) (UniProt Q14289)
[21] = target: TAOK3 (human) (UniProt Q9H2K8)
[22] = target: TNK2 (human) (UniProt Q07912)
[23] = target: MAPK8 (human) (UniProt P45983)
[24] = target: MAP3K9 (human) (UniProt P80192)
[25] = target: RIPK2 (human) (UniProt O43353)
[26] = target: MAP2K1 (human) (UniProt Q02750)
[27] = target: PRKD2 (human) (UniProt Q9BZL6)
[28] = target: CSNK1G1 (human) (UniProt Q9HCP0)
[29] = target: SRC (human) (UniProt P12931)
[30] = target: FGFR3 (human) (UniProt P22607)
[31] = target: PRKG1 (human) (UniProt Q13976)
[32] = target: ERBB4 (human) (UniProt Q15303)
[33] = target: RPS6KA5 KD2 (human) (UniProt O75582)
[34] = target: PIM1 (human) (UniProt P11309)
[35] = target: PAK2 (human) (UniProt Q13177)
[36] = target: MYLK (human) (UniProt Q15746)
[37] = target: CDK1 CCNA2 (human) (UniProt P06493+P20248)
[38] = target: RPS6KA3 KD1 KD2 (human) (UniProt P51812)
[39] = target: MARK4 (human) (UniProt Q96L34)
[40] = target: ACVR1B (human) (UniProt P36896)
[41] = target: CDK6 CCND3 (human) (UniProt P30281+Q00534)
[42] = target: CSNK1A1 (human) (UniProt P48729)
Chain of CSNK1A1 (human) (P48729 whole entry, looked up): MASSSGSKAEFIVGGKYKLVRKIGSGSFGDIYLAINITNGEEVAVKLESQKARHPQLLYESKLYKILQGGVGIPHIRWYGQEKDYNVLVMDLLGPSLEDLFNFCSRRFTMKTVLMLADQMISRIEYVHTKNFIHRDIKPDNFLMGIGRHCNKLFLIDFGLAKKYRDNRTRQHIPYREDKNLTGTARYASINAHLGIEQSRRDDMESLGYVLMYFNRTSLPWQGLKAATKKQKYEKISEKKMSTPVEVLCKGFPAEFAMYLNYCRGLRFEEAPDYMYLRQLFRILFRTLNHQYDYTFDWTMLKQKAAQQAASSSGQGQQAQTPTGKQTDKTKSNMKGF

Chain of TNK2 (human) (Q07912 whole entry, looked up): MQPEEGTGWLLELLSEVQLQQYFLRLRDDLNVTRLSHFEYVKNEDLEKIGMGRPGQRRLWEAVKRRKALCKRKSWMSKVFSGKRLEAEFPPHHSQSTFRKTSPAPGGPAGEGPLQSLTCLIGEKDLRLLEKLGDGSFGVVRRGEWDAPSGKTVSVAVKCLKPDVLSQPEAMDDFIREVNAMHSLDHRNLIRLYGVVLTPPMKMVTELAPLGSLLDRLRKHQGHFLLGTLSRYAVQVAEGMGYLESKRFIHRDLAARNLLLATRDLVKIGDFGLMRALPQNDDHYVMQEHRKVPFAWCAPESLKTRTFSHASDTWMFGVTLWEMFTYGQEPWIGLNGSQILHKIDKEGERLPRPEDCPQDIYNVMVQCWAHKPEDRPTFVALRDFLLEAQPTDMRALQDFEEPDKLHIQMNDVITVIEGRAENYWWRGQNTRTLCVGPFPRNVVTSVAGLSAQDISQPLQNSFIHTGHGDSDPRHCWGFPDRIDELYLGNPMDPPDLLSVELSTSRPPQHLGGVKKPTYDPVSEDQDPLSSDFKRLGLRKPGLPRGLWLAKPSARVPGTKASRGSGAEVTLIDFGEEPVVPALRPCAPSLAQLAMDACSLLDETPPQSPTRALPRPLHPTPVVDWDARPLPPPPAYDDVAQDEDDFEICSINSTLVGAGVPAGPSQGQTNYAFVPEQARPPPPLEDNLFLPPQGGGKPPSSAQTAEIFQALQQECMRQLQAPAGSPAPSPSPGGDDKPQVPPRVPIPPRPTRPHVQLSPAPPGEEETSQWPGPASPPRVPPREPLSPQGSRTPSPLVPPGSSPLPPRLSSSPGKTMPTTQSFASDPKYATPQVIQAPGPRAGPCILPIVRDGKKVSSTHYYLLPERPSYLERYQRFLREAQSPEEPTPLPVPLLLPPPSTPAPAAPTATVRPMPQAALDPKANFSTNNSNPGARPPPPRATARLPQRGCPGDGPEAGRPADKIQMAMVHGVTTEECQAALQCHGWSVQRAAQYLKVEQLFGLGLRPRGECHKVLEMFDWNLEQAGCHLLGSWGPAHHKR
Chain of TGFBR1 (human) (P36897 whole entry, looked up): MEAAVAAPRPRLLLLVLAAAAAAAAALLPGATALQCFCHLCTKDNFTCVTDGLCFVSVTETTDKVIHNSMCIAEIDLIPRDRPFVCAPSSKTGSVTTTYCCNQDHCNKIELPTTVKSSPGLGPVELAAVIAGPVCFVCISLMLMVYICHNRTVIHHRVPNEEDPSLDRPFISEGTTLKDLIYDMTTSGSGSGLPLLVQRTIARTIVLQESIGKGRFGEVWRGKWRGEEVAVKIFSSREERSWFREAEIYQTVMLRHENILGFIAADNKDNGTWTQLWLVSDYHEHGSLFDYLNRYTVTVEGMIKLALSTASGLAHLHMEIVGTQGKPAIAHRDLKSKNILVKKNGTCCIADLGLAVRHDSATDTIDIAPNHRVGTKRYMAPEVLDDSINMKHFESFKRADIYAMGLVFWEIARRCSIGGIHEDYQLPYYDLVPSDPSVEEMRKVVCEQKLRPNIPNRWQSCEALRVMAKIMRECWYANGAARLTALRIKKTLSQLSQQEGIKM
Chain of JAK1 JH1 catalytic (human) (P23458 whole entry, looked up): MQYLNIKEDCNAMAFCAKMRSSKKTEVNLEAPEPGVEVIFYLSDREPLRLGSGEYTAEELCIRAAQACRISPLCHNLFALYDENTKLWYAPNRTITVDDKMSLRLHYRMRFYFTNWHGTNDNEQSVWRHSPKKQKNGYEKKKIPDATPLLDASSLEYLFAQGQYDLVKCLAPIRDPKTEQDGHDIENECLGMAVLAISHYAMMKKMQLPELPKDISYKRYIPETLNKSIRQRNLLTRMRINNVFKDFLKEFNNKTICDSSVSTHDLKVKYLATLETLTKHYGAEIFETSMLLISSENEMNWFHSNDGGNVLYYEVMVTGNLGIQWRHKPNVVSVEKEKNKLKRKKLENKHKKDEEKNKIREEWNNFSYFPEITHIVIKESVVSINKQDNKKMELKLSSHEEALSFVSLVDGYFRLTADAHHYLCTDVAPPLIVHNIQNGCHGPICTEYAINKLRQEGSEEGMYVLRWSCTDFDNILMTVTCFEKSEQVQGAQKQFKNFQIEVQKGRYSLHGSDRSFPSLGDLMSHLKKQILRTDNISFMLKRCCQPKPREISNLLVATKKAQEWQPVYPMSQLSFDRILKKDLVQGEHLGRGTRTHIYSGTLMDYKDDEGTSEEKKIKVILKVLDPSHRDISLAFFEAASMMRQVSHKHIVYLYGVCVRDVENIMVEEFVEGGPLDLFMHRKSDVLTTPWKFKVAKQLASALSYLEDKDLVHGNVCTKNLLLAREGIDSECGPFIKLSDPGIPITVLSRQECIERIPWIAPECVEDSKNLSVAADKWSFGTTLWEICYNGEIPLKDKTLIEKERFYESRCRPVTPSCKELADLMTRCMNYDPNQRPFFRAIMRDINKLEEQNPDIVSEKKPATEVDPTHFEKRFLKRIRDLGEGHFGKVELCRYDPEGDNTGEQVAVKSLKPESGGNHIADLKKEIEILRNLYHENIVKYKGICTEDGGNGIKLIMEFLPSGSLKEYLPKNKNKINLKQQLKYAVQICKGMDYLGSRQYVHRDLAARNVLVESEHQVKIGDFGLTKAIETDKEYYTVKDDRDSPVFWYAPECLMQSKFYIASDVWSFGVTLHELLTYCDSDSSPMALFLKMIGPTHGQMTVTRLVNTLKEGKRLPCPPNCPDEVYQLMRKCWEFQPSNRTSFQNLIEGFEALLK
Chain of SGK3 (human) (Q96BR1 whole entry, looked up): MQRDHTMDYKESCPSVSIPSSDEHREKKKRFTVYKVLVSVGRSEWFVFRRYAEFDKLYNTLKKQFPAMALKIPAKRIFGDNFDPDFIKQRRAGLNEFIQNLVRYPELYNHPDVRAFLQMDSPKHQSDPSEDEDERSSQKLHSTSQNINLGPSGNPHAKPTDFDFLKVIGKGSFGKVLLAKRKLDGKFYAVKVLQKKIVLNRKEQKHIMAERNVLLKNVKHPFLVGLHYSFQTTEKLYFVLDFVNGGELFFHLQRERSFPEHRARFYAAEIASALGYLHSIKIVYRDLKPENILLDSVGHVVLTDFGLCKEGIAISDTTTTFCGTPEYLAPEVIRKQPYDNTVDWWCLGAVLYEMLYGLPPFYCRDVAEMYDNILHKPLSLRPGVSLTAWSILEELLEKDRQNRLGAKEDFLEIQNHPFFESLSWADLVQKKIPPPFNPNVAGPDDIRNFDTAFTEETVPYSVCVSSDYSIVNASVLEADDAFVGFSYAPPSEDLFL
Chain of PRKG2 (human) (Q13237 whole entry, looked up): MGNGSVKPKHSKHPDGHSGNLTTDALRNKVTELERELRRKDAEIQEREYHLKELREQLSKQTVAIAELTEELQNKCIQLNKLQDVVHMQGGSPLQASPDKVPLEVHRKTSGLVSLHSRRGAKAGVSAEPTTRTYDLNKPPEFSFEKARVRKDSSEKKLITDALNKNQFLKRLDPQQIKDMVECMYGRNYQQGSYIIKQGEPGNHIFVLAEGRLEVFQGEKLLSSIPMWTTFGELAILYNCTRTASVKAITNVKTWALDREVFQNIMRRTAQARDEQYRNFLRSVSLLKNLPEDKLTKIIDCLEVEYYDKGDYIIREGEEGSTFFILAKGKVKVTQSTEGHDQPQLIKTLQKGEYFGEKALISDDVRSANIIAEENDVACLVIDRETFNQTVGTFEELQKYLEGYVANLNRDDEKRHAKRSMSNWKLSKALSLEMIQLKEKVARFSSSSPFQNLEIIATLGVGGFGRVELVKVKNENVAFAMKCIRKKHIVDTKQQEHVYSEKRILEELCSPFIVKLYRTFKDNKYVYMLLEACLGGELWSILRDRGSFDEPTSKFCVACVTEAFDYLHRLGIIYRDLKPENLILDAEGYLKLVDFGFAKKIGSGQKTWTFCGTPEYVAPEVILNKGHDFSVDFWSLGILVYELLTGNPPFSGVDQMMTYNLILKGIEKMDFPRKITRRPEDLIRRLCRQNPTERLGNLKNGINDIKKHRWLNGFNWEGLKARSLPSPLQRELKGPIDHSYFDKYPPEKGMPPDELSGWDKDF
Chain of PAK2 (human) (Q13177 whole entry, looked up): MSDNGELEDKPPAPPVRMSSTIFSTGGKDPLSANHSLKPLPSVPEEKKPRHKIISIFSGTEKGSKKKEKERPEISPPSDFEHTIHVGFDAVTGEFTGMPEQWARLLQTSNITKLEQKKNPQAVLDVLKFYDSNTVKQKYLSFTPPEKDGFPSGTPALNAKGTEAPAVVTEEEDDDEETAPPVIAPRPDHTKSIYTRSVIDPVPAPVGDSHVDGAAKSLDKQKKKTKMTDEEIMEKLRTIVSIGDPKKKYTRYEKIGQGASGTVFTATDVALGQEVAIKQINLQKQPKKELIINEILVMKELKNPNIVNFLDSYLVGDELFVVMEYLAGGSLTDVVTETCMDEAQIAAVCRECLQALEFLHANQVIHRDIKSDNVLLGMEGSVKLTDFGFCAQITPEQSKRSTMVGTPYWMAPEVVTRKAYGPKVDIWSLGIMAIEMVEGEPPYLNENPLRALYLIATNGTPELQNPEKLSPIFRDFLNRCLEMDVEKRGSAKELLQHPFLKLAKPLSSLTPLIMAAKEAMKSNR

`O=C1Nc2ccccc2/C1=C1\Nc2ccccc2\C1=N/O` was tested. Which residual activity [1] did it give?
Its residual activity is 63.4%.

What about the residual activity [2] of the same compound?
The residual activity was 98%.

And the residual activity [3]?
Its residual activity is 92.1%.

And the residual activity [4]?
Its residual activity is 99.5%.

And the residual activity [5]?
Its residual activity is 19.9%.

What about the residual activity [6] of the same compound?
The residual activity was 102%.

And the residual activity [7]?
The residual activity was 102%.

What about the residual activity [8] of the same compound?
Its residual activity is 93%.

What about the residual activity [9] of the same compound?
Its residual activity is 98.8%.

What about the residual activity [10] of the same compound?
Its residual activity is 65.9%.

And the residual activity [11]?
Its residual activity is 80.1%.

What about the residual activity [12] of the same compound?
Its residual activity is 98.9%.

And the residual activity [13]?
Its residual activity is 92.9%.

And the residual activity [14]?
The residual activity was 89.3%.

What about the residual activity [15] of the same compound?
Its residual activity is 97.9%.

What about the residual activity [16] of the same compound?
The residual activity was 91.9%.

What about the residual activity [17] of the same compound?
The residual activity was 66.8%.

And the residual activity [18]?
The residual activity was 67.3%.

What about the residual activity [19] of the same compound?
The residual activity was 93%.

What about the residual activity [20] of the same compound?
Its residual activity is 65.8%.

What about the residual activity [21] of the same compound?
The residual activity was 62.6%.

And the residual activity [22]?
The residual activity was 40.6%.

And the residual activity [23]?
The residual activity was 101%.

What about the residual activity [24] of the same compound?
The residual activity was 19.1%.

What about the residual activity [25] of the same compound?
The residual activity was 72.3%.

What about the residual activity [26] of the same compound?
Its residual activity is 99.6%.

What about the residual activity [27] of the same compound?
The residual activity was 89%.

And the residual activity [28]?
The residual activity was 86.8%.

What about the residual activity [29] of the same compound?
The residual activity was 65.1%.

What about the residual activity [30] of the same compound?
Its residual activity is 70.4%.

And the residual activity [31]?
Its residual activity is 86% and 90.1%.

What about the residual activity [32] of the same compound?
The residual activity was 102%.

What about the residual activity [33] of the same compound?
The residual activity was 67%.

What about the residual activity [34] of the same compound?
Its residual activity is 85.2%.

What about the residual activity [35] of the same compound?
Its residual activity is 96.7%.

And the residual activity [36]?
The residual activity was 65%.

And the residual activity [37]?
The residual activity was 88.4%.

What about the residual activity [38] of the same compound?
Its residual activity is 61.4%.

And the residual activity [39]?
The residual activity was 56.2%.

And the residual activity [40]?
Its residual activity is 102%.

And the residual activity [41]?
The residual activity was 26.1%.

What about the residual activity [42] of the same compound?
The residual activity was 48.2%.

With `O=C(Nc1cccc(Nc2cc(Nc3cccc(C(F)(F)F)c3)ncn2)c1)C1CC1` as the compound, how does the residual activity [1] read?
The residual activity was 103%.

What about the residual activity [2] of the same compound?
Its residual activity is 96.1%.

What about the residual activity [3] of the same compound?
Its residual activity is 105%.

And the residual activity [4]?
Its residual activity is 89.2%.

What about the residual activity [5] of the same compound?
Its residual activity is 102%.

And the residual activity [6]?
The residual activity was 106%.

What about the residual activity [7] of the same compound?
Its residual activity is 95.2%.

What about the residual activity [8] of the same compound?
Its residual activity is 99.1%.

And the residual activity [9]?
Its residual activity is 99.4%.

And the residual activity [10]?
Its residual activity is 95.9%.

And the residual activity [11]?
The residual activity was 93.7%.

What about the residual activity [12] of the same compound?
The residual activity was 97.4%.

And the residual activity [13]?
The residual activity was 97.2%.

What about the residual activity [14] of the same compound?
The residual activity was 86.4%.

And the residual activity [15]?
The residual activity was 82.5%.

What about the residual activity [16] of the same compound?
The residual activity was 102%.

And the residual activity [17]?
The residual activity was 98.5%.

What about the residual activity [18] of the same compound?
Its residual activity is 103%.

What about the residual activity [19] of the same compound?
The residual activity was 102%.

And the residual activity [20]?
Its residual activity is 89.6%.

What about the residual activity [21] of the same compound?
The residual activity was 98.7%.

And the residual activity [22]?
The residual activity was 98.7%.

What about the residual activity [23] of the same compound?
Its residual activity is 93.4%.

And the residual activity [24]?
The residual activity was 107%.

What about the residual activity [25] of the same compound?
Its residual activity is 80.8%.

What about the residual activity [26] of the same compound?
Its residual activity is 98.9%.

What about the residual activity [27] of the same compound?
The residual activity was 103%.

And the residual activity [28]?
The residual activity was 94.8%.

And the residual activity [29]?
Its residual activity is 102%.

And the residual activity [30]?
The residual activity was 102%.

What about the residual activity [31] of the same compound?
The residual activity was 90.6% and 96.4%.

And the residual activity [32]?
The residual activity was 99.2%.

And the residual activity [33]?
The residual activity was 103%.

And the residual activity [34]?
The residual activity was 104%.

And the residual activity [35]?
Its residual activity is 103%.

And the residual activity [36]?
The residual activity was 99%.

What about the residual activity [37] of the same compound?
The residual activity was 97.9%.

What about the residual activity [38] of the same compound?
The residual activity was 105%.

And the residual activity [39]?
Its residual activity is 101%.

And the residual activity [40]?
Its residual activity is 101%.

And the residual activity [41]?
The residual activity was 102%.

And the residual activity [42]?
The residual activity was 102%.

`O=C1NC(=O)C(c2c[nH]c3ccccc23)=C1c1c[nH]c2ccccc12` was tested. Which residual activity [1] did it give?
The residual activity was 101%.

What about the residual activity [2] of the same compound?
The residual activity was 91.1%.

What about the residual activity [3] of the same compound?
Its residual activity is 89.4%.

What about the residual activity [4] of the same compound?
Its residual activity is 93%.

What about the residual activity [5] of the same compound?
Its residual activity is 64.7%.

What about the residual activity [6] of the same compound?
The residual activity was 97.9%.

And the residual activity [7]?
The residual activity was 82.4%.

What about the residual activity [8] of the same compound?
The residual activity was 99.9%.

What about the residual activity [9] of the same compound?
Its residual activity is 90%.

What about the residual activity [10] of the same compound?
The residual activity was 103%.

What about the residual activity [11] of the same compound?
Its residual activity is 100%.

And the residual activity [12]?
Its residual activity is 96.6%.

And the residual activity [13]?
Its residual activity is 89%.

And the residual activity [14]?
Its residual activity is 89.4%.

What about the residual activity [15] of the same compound?
Its residual activity is 94.3%.

And the residual activity [16]?
Its residual activity is 87.8%.

What about the residual activity [17] of the same compound?
The residual activity was 92.8%.

And the residual activity [18]?
The residual activity was 52.6%.

What about the residual activity [19] of the same compound?
Its residual activity is 103%.

What about the residual activity [20] of the same compound?
Its residual activity is 95.6%.

What about the residual activity [21] of the same compound?
Its residual activity is 85.2%.

What about the residual activity [22] of the same compound?
Its residual activity is 94.9%.

And the residual activity [23]?
Its residual activity is 95.1%.

What about the residual activity [24] of the same compound?
The residual activity was 55.4%.

What about the residual activity [25] of the same compound?
Its residual activity is 97%.

What about the residual activity [26] of the same compound?
The residual activity was 95.8%.

And the residual activity [27]?
Its residual activity is 87.4%.

And the residual activity [29]?
The residual activity was 93.7%.

And the residual activity [30]?
The residual activity was 70.7%.

And the residual activity [31]?
Its residual activity is 76.8% and 82.4%.

And the residual activity [32]?
The residual activity was 110%.

And the residual activity [33]?
The residual activity was 62%.

What about the residual activity [34] of the same compound?
The residual activity was 17.2%.

What about the residual activity [35] of the same compound?
Its residual activity is 97%.

What about the residual activity [36] of the same compound?
Its residual activity is 74.4%.

What about the residual activity [37] of the same compound?
Its residual activity is 96.3%.

And the residual activity [38]?
The residual activity was 46.7%.

And the residual activity [39]?
Its residual activity is 95.3%.

And the residual activity [40]?
Its residual activity is 112%.

What about the residual activity [41] of the same compound?
The residual activity was 103%.

And the residual activity [42]?
Its residual activity is 98.4%.

Which results are given for `CN([C@@H](Cc1ccc(OS(=O)(=O)c2cccc3cnccc23)cc1)C(=O)N1CCN(c2ccccc2)CC1)S(=O)(=O)c1cccc2cnccc12`?
residual activity [1]: 108%; residual activity [2]: 94.8%; residual activity [3]: 98.1%; residual activity [4]: 92.2%; residual activity [5]: 98.8%; residual activity [6]: 104%; residual activity [7]: 103%; residual activity [8]: 99.3%; residual activity [9]: 104%; residual activity [10]: 104%; residual activity [11]: 97.4%; residual activity [13]: 98.9%; residual activity [14]: 104%; residual activity [15]: 96%; residual activity [16]: 110%; residual activity [17]: 84.2%; residual activity [18]: 99.5%; residual activity [19]: 96.2%; residual activity [20]: 103%; residual activity [21]: 89.9%; residual activity [22]: 94.8%; residual activity [23]: 94.6%; residual activity [24]: 104%; residual activity [25]: 89.4%; residual activity [26]: 75.3%; residual activity [27]: 100%; residual activity [28]: 102%; residual activity [29]: 91.3%; residual activity [30]: 98.8%; residual activity [31]: 84.2% and 93.6%; residual activity [32]: 103%; residual activity [33]: 100%; residual activity [34]: 106%; residual activity [35]: 99.1%; residual activity [36]: 98.2%; residual activity [38]: 98.6%; residual activity [39]: 98.8%; residual activity [40]: 98.7%; residual activity [41]: 105%; residual activity [42]: 99%

Source: the kinase profiling compilation of Christmann-Franck et al. (2016)
